From patent publication US20250161319A1, “USE OF HPK1 INHIBITOR IN TREATMENT OF INTERFERON-RELATED DISEASES” (priority 2022, published 2025)

What was measured:
[1] = Acute toxicity assay of DD02001A_trans in mice by gavage; format: in vivo; conditions: single dose, observed 14 days
Protocol: Mice were given DD02001A_trans (2000, 1500, 1000, and 500 mg/kg) by gavage in a single dose, respectively, and the responses of the mice after administration and their deaths within two weeks were recorded. • 2.2.5.1 Animals: Kunming breed mice (purchased from Guangdong Provincial Laboratory Animal Centre, License No.: SCXK(GD) 2018-0002), 10 mice, half male and half female, weighing 18-22 g. The mice were kept for three days to adapt to the environment. […] Necropsy was carried out on the dead animals in time to record the lesions. If obvious changes are visible to naked eyes, pathological section should be made.

TNIK = TNIK (Homo sapiens (Human), UniProt Q9UKE5); assay: Inhibition of TNIK kinase activity in vitro (ADP-Glo); format: biochemical
TNIK, sequence (Q9UKE5 whole entry): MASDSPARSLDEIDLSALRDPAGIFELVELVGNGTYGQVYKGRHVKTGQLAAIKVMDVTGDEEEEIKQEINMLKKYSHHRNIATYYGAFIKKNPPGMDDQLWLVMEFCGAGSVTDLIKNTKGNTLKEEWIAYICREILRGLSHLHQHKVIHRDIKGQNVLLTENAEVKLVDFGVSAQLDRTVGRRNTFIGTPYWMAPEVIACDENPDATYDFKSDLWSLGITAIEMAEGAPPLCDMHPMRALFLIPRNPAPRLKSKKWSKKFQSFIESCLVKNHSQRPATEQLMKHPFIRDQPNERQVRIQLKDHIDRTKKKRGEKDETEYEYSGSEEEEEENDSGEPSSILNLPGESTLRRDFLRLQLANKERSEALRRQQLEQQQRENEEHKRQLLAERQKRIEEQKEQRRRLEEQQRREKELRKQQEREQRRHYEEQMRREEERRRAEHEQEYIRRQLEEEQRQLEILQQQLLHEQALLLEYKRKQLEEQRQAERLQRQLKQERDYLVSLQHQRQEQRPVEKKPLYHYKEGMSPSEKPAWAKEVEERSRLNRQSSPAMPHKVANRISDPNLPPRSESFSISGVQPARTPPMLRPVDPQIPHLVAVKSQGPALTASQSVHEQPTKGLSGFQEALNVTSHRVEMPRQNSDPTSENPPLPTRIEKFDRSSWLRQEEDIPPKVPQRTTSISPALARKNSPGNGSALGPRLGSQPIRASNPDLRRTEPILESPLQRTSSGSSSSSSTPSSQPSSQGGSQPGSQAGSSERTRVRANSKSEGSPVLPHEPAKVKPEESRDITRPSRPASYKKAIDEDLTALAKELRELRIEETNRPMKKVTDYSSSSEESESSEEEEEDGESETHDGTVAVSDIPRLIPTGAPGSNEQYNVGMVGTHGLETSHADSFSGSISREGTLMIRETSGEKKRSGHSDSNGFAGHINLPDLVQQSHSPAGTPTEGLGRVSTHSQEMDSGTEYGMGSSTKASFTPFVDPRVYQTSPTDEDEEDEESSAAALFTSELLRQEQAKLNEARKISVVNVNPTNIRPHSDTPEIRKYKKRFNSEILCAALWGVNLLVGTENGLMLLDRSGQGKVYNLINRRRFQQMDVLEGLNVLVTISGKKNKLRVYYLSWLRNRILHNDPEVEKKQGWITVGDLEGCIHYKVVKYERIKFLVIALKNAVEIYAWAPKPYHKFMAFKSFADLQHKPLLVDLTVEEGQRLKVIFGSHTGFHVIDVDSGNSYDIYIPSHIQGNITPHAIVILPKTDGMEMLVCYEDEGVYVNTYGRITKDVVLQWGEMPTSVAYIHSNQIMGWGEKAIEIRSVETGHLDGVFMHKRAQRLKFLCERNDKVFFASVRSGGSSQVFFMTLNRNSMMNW
Protocol: (§1) The starting concentration for all tested compounds was 10 μM, and diluted in three-fold concentration gradient for a total of 10 concentration points in duplicate. […] A mixture of 2-fold concentration of MBP and ATP was prepare in the kinase buffer, and 2.5 μL of prepared mixture of 2-fold concentration of MBP and ATP was added into the above reaction system for the reaction, centrifuged at 1000 g for 30 s, and then incubated at room temperature for 1 h. 5 μL of ADP-Glo reagent was added into the reaction system, and incubated at room temperature for 40 min. 10 μL of kinase detection reagent was added and incubated at room temperature for 40 min.

CSF1R = CSF1R (Homo sapiens (Human), UniProt P07333); assay: Kinase panel inhibition rate at 10 μM; format: biochemical
ROS1 = ROS1 (Homo sapiens (Human), UniProt P08922); assay: Kinase panel inhibition rate at 10 μM; format: biochemical
ROS1, sequence (P08922 28-2347): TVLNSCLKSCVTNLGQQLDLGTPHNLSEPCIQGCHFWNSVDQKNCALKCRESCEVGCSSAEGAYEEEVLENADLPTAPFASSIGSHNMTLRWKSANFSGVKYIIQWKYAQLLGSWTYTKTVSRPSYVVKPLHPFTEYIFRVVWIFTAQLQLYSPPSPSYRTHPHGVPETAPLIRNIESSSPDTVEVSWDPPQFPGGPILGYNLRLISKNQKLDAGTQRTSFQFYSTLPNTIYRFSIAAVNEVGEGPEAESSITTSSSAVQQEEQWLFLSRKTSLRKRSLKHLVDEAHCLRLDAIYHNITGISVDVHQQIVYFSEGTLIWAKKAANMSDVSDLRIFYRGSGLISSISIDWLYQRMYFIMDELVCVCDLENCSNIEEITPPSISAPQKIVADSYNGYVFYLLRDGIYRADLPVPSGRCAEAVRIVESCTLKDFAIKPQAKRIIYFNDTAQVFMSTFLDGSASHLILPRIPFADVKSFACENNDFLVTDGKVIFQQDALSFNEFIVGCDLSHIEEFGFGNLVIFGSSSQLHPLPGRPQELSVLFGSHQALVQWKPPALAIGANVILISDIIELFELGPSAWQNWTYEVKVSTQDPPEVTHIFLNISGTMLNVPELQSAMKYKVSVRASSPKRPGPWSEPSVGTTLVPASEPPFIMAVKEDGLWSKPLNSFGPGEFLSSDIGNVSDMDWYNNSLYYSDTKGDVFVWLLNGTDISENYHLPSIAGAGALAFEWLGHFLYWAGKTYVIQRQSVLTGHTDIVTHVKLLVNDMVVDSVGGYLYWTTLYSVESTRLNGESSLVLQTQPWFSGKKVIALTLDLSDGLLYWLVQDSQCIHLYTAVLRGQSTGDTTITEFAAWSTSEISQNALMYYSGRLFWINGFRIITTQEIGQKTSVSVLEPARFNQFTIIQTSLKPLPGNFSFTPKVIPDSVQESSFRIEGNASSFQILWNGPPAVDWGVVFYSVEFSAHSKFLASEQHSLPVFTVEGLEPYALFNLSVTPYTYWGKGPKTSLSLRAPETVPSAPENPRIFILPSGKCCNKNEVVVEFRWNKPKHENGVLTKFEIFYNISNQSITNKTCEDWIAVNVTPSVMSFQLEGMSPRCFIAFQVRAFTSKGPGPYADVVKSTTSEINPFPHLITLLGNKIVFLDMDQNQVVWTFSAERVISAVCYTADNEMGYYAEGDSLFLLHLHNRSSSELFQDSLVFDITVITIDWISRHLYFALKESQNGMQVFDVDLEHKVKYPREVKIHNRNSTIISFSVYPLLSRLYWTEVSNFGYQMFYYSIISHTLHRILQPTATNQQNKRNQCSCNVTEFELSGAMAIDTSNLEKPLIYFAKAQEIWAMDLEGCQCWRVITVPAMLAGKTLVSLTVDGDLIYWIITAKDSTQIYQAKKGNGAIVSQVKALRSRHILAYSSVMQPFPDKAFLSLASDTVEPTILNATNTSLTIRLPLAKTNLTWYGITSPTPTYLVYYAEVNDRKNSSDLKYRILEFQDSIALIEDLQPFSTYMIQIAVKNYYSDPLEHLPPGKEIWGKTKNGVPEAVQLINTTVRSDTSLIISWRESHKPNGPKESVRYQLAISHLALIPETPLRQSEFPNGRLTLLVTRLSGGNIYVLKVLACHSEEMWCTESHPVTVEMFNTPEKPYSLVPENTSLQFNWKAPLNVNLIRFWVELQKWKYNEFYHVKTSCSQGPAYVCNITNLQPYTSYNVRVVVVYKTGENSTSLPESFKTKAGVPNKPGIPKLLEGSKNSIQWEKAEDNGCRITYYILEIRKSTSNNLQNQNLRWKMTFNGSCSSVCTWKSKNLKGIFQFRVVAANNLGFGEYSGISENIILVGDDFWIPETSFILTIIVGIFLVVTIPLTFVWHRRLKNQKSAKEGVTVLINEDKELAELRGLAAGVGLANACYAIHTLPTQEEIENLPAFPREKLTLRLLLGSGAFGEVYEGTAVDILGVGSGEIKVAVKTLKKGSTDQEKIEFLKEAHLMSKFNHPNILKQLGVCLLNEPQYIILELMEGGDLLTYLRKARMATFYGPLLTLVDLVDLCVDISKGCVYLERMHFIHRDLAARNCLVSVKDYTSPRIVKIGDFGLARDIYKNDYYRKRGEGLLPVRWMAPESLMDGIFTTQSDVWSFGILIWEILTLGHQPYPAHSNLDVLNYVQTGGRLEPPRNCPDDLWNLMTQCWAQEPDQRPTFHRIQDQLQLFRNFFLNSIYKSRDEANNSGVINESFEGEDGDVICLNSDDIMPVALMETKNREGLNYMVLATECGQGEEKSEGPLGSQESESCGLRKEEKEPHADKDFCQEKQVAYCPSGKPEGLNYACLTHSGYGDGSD

MNK1/2 = assay: Kinase panel inhibition rate at 10 μM; format: biochemical
ZAP70 = ZAP70 (Homo sapiens (Human), UniProt P43403); assay: Kinase panel inhibition rate at 10 μM; format: biochemical
[2] = Determination of pharmacokinetic parameters in SD rats; format: in vivo; conditions: rat, plasma, oral; male SD rats; intravenously 2 mg/kg, gavage 10 mg/kg; read-out: Absolute oral bioavailability %
Protocol: The compounds to be tested were administered intravenously (2 mg/kg) and by gavage ([…]) to three male SD rats, respectively, and the blood concentration of the compounds to be tested in plasma was quantified by liquid chromatography tandem mass spectrometry ([…]), and the pharmacokinetic parameters were calculated to investigate the pharmacokinetic profiles of the compounds to be tested in the SD male rats. For the compounds to be tested, blood was taken at the time points of 0.25 h, 0.5 h, 1 h, 2 h, 4 h, 6 h, 8 h and 24 h after oral administration, and blood was taken at the time points of 0.083 h, 0.25 h, 0.5 h, 1 h, 2 h, 4 h, 6 h, 8 h and 24 h after intravenous administration. Subsequently, 50 μL of plasma sample was transferred to a 96-well plate and 250 μLACN (internal standard containing 260 ng/ml toluenesulfonylbutyramide) to precipitate proteins, and centrifuged at 4° C. and 4000 rpm for 20 min, 150 μL of the supernatant was transferred to a new 96-well plate and mixed with 150 μL of 0.1% FA/water, and then 5 μL of the resulting solution was loaded on LC-MS/MS for analysis.

ERK1.2 = assay: Kinase panel inhibition rate at 10 μM; format: biochemical
AKT1 = AKT1 (Homo sapiens (Human), UniProt P31749); assay: Kinase panel inhibition rate at 10 μM; format: biochemical
GCK = GCK (Homo sapiens (Human), UniProt Q12851); assay: Inhibition of GCK kinase activity in vitro (ADP-Glo); format: biochemical
GCK, sequence (Q12851 whole entry): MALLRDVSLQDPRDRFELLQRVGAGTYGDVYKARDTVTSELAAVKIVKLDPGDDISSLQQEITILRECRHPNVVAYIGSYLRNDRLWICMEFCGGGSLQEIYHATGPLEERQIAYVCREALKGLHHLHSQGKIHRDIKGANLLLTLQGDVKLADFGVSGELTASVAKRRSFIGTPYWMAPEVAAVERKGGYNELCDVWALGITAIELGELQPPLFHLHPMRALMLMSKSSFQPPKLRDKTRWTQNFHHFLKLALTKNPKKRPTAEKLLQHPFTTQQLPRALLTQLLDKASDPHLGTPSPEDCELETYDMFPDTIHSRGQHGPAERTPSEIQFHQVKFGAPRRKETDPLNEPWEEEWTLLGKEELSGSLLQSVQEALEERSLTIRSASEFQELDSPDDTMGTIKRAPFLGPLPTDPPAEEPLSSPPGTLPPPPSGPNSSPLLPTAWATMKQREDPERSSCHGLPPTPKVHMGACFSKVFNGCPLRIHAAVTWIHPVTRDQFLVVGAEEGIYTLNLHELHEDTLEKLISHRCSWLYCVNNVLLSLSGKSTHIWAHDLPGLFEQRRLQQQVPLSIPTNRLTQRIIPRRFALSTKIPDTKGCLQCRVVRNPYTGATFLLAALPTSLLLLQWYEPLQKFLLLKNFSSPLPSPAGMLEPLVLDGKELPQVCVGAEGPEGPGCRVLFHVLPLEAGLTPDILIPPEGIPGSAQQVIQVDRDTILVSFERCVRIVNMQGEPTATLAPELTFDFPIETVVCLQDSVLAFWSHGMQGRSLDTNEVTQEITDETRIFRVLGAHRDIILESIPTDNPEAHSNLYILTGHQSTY
Protocol: as §1

LYNB = LYNB (Homo sapiens (Human), UniProt P07948); assay: Kinase panel inhibition rate at 10 μM; format: biochemical
CK1gamma1 = CK1gamma1 (Homo sapiens (Human), UniProt Q9HCP0); assay: Kinase panel inhibition rate at 10 μM; format: biochemical
PDK1 = PDK1 (Homo sapiens (Human), UniProt O15530); assay: Inhibition of PDK1 kinase activity in vitro (ADP-Glo); format: biochemical
Protocol: as §1

CDK12 = CDK12 (Homo sapiens (Human), UniProt Q9NYV4); assay: Kinase panel inhibition rate at 10 μM; format: biochemical
SYK = SYK (Homo sapiens (Human), UniProt P43405); assay: Kinase panel inhibition rate at 10 μM; format: biochemical
HER2 = HER2 (Homo sapiens (Human), UniProt P04626); assay: Kinase panel inhibition rate at 10 μM; format: biochemical
IKK-beta = IKK-beta (Homo sapiens (Human), UniProt O14920); assay: Kinase panel inhibition rate at 10 μM; format: biochemical
CDK4 = CDK4 (Homo sapiens (Human), UniProt P11802); assay: Kinase panel inhibition rate at 10 μM; format: biochemical
LCK = LCK (Homo sapiens (Human), UniProt P06239); assay: Kinase panel inhibition rate at 10 μM; format: biochemical
LCK, sequence (P06239 whole entry): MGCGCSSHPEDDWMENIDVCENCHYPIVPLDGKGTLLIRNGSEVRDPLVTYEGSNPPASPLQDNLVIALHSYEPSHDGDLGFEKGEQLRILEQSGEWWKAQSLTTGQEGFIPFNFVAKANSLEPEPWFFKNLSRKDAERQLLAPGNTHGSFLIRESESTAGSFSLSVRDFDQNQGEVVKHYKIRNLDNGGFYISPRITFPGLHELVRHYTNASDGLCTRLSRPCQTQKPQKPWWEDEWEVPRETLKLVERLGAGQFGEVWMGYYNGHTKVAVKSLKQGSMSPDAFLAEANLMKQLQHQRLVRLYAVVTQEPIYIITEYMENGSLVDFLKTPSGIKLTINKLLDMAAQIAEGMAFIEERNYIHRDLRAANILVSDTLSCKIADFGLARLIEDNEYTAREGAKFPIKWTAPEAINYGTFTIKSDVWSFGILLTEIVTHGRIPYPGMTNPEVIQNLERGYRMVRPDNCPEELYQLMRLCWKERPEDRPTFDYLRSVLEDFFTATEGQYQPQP

IGFIR = IGFIR (Homo sapiens (Human), UniProt P08069); assay: Kinase panel inhibition rate at 10 μM; format: biochemical
PI3Kα = PI3Kα (Homo sapiens (Human), UniProt P42336); assay: Kinase panel inhibition rate at 10 μM; format: biochemical
p38-alpha = p38-alpha (Homo sapiens (Human), UniProt Q16539); assay: Kinase panel inhibition rate at 10 μM; format: biochemical
CDK7 = CDK7 (Homo sapiens (Human), UniProt P50613); assay: Kinase panel inhibition rate at 10 μM; format: biochemical
ATR = ATR (Homo sapiens (Human), UniProt Q13535); assay: Kinase panel inhibition rate at 10 μM; format: biochemical
JAK1 = JAK1 (Homo sapiens (Human), UniProt P23458); assay: Kinase panel inhibition rate at 10 μM; format: biochemical
HPK1 = HPK1 (Homo sapiens (Human), UniProt Q92918); assay: Inhibition of HPK1 kinase activity in vitro (ADP-Glo), compounds of Formula I-2; format: biochemical
Protocol: The starting concentration for all tested compounds was 10 μM, and diluted in three-fold concentration gradient for a total of 10 concentration points in duplicate. Before the experiment, 50 μM DTT and the enzymatic reaction system buffer were prepared. […] A mixture of 2-fold concentration of MBP and ATP was prepare in the kinase buffer, and 2.5 μL of prepared mixture of 2-fold concentration of MBP and ATP was added into the above reaction system for the reaction, centrifuged at 1000 g for 30 s, and then incubated at room temperature for 1 h. 5 μL of ADP-Glo reagent was added into the reaction system, and incubated at room temperature for 40 min. 10 μL of kinase detection reagent was added and incubated at room temperature for 40 min. […] In the above formula, empd refers to the tested compound, PC refers to the positive control, and VC refers to the negative control.

EGFR = EGFR (Homo sapiens (Human), UniProt P00533); assay: Kinase panel inhibition rate at 10 μM; format: biochemical

Compound: Cn1cccc1-c1cc2cc(NC(=O)[C@@H]3C[C@H]3F)ncc2c(N)c1F [DD02001A trans, (1S,2R)—N-(8-amino-7-fluoro-6-(1-methyl-1H-pyrrole-2-yl)isoquinolin-3-yl)-2-fluorocyclopropane-1-carboxamide]
- maximum tolerated dosage by gavage [1]: 1000 to 1500 mg/kg
- IC50 (TNIK): > 10 nM
- inhibition at 10 µM (CSF1R): 102%
- inhibition at 10 µM (ROS1): < 40%
- inhibition rate MNK1/2 (MNK1/2): < 40%
- inhibition at 10 µM (ZAP70): < 40%
- bioavailability [2]: 61.3%
- inhibition rate ERK1.2 (ERK1.2): < 40%
- inhibition at 10 µM (AKT1): < 40%
- IC50 (GCK): > 10 nM
- inhibition at 10 µM (LYNB): 82.9%
- inhibition at 10 µM (CK1gamma1): < 40%
- IC50 (PDK1): > 10000 nM
- inhibition at 10 µM (CDK12): < 40%
- inhibition at 10 µM (SYK): 85.1%
- inhibition at 10 µM (HER2): < 40%
- inhibition at 10 µM (IKK-beta): < 40%
- inhibition at 10 µM (CDK4): < 40%
- inhibition at 10 µM (LCK): 87.6%
- inhibition at 10 µM (IGFIR): < 40%
- inhibition at 10 µM (PI3Kα): 79.1%
- inhibition at 10 µM (p38-alpha): < 40%
- inhibition at 10 µM (CDK7): < 40%
- inhibition at 10 µM (ATR): < 40%
- inhibition at 10 µM (JAK1): 97.3%
- IC50 (HPK1): < 10 nM
- inhibition at 10 µM (EGFR): < 40%
